Measurements taken from paper PMC5390467, “Novel lead structures with both Plasmodium falciparum gametocytocidal and asexual blood stage activity identified from high throughput compound screening” (Malaria Journal, 2017).

Experiments:
468 human kinases = experiment: human kinase profiling (Kinome scan, DiscoverX), whole panel; format: binding
[1] = tested on: P. falciparum NF54 asexual parasites; experiment: asexual parasite growth inhibition assay (SYBR Green); format: cell-based, Plasmodium falciparum; details: 72 h, mean ± SD, n = 3
Description: (§1) Asexual parasites of P. falciparum strain NF54 were cultured as described previously. Briefly, parasites were maintained in RPMI 1640 medium containing 10% positive human serum + erythrocytes (5% haematocrit), 2.5% sodium bicarbonate and 11 µg/mL gentamicin at 37 °C with 5% CO2, 5% O2 and 90% N2. Gametocyte cultures were set up at 0.1% parasitaemia and on days 9–10 treated with 50 mM N-acetylglucosamine (NAG) to block further asexual growth. Stage III–V gametocytes were isolated by Percoll density gradient centrifugation on day 12 and returned to culture for 24 h before being used in the assay. At the time of the assay over 73% of the gametocytes were stage IV or V (Additional file 1). HepG2 cells (ATCC, cat. no. 77400) were cultured in 175-cm^2 tissue culture flasks with 30 ml growth medium at 37 °C in a 5% CO2 and 5% O2 humidified atmosphere. Growth medium was made with Dulbecco’s Modified Eagle Medium with 10% fetal bovine serum (FBS). Growth medium was replaced every other day and cells were passaged at 75% confluence.
Drug activity on asexual stage parasites was tested using a SYBR Green assay as described previously. Briefly, 2.5 μL/well complete culture medium was dispensed into each well of 1536-well plates using the Multidrop Combi followed by 23 nL compound transferring using the NX-TR Pintool. Parasites were diluted to 0.5% parasitaemia in complete culture medium with 2% haematocrit and drugs diluted in DMSO (≤0.5%). The pre-diluted parasites were dispensed into a 1536-well plate (2.5 μL/well). After 72 h incubation under the standard culture conditions, 5 μL/well of lysis buffer containing SYBR Green I was added to the parasite culture and incubated for 30 min at room temperature. The fluorescence of each well was measured in a fluorescence detection mode (Ex = 490 nm, Em = 520 nm) using a ViewLux plate reader (PerkinElmer).

[2] = tested on: P. falciparum NF54 gametocytes; experiment: gametocyte viability assay (AlamarBlue); format: cell-based, Plasmodium falciparum; details: for IC50: P. falciparum NF54 stage III-V gametocytes, 72 h, AlamarBlue, mean ± SD, n = 3; for Asexual/Gametocyte: ratio of asexual IC50 to gametocyte IC50
Description: as §1
Compounds from the Sytravon library (a retired Pharma screening collection that contains a diversity of novel small molecules, with an emphasis on medicinal chemistry-tractable scaffolds) were obtained as powder samples and dissolved in DMSO as […] stock solutions. Compound screening experiments were performed as previously described. In the primary screen, two concentrations for each compound were tested. No technical and biological replicates were involved. In the follow-up confirmation studies, three biological replicates were tested for each compound in both parasite assays. The positive control was 46 µM of Torin 2 and negative control was DMSO. Briefly, 2.5 μL/well incomplete medium was dispensed into each well of 1536-well plates using the Multidrop Combi followed by 23 nL compound transferring using the NX-TR Pintool (WAKO Scientific Solutions, San Diego, CA). Then, 2.5 μL/well of gametocytes was dispensed with a seeding density of 20,000 cells/well using the Multidrop Combi. The assay plates were incubated for 72 h at 37 °C with 5% CO2. After addition of 5 μL/well of 2X AlamarBlue dye (Life Technologies, cat. no. DAL1100), the plates were incubated for 24 h at 37 °C with 5% CO2 and then were read in a fluorescence detection mode (Ex = 525 nm, Em = 598 nm) on a ViewLux plate reader (PerkinElmer).

HepG2 cells = experiment: HepG2 cytotoxicity assay (AlamarBlue); format: cell-based, human; details: HepG2 cells, 72 h, AlamarBlue, up to 46 µM
Description: as §1
Drug activity on HepG2 was tested using an AlamarBlue assay as previously described. Briefly, 5 μL/well of HepG2 cells were dispensed with a seeding density of 1000 cells/well using the Multidrop Combi. 23 nL compound was transferred using the NX-TR Pintool. After 72 h incubation under the standard culture condition, 5 μL/well of 2X AlamarBlue dye was added to the cells, the plates were incubated for 2 h at 37 °C with 5% CO2 and then were read in a fluorescence detection mode (Ex = 525 nm, Em = 598 nm) on a ViewLux plate reader.

number of human kinases interacting (Interactions Mapped, 468 Assays Tested) (468 human kinases; 10 μM)	S-Score(35) (468 human kinases; 10 µM, 468 assays)	binding to human kinases, in words (468 human kinases; 10 µM, 468 human kinases)	IC50 ([1]; Plasmodium falciparum)	IC50 ([2]; Plasmodium falciparum)	IC50 [1]	IC50 [2]	SMILES	Asexual/Gametocyte [2]	cytotoxicity at 46 µM (HepG2 cells; Homo sapiens, read-out: HepG2, IC50 (dash = less than 25% cytotoxicity))	HepG2, IC50 (dash = less than 25% cytotoxicity) (HepG2 cells)
0	0	did not affect the activity of any	1.16 ± 0.57 µM	0.62 ± 0.04 µM			CCOCc1cc(CN2CCN(c3ccccc3OC)CC2)c(O)c2ncccc12 [NCGC00114940]	1.87	< 25%	
					13.8 ± 0.82 µM	~60 µM	COc1ccc(NC(=O)c2ccc3c(c2)N(Cc2cccc(Cl)c2)C(=O)c2ccccc2[S+]3[O-])cc1Cl (stereo not drawn) [NCGC00140326]	0.23		– (Indicates compounds with less than 25% cytotoxicity at up to 46 µM)
					1.07 ± 0.37 µM	4.86 ± 0.03 µM	Cc1ccc(C)c(Oc2c(C(F)(F)F)oc3c(CN4CCN(C)CC4)c(O)ccc3c2=O)c1 [NCGC00141020]	0.22		– (Indicates compounds with less than 25% cytotoxicity at up to 46 µM)
